Measured values taken from US20100292137A1, “Antibiotics and Methods For Producing Them” (priority 2006, published 2010).
Converted amounts (≈) assume the structure as drawn. Starred links: 1 amine or outer side, 2 acyl side, 3 side chain; linkers in the order of their positions; H or OH if unused. Positions of bridges follow the written chain, without caps; N, C: chain ends. Non-standard residues stand in square brackets, D forms with d. Residues, ends and D or L forms follow the SMILES beside them. *: point of attachment. X1 = NC1=N[C@@H]([C@H](N[*:1])C(=O)[*:2])C[C@H](O)N1; ΔAla(Z-3-ureido) = NC(=O)N/C=C(\N)C(=O)O; β3hOrn = NCCC[C@H](N)CC(=O)*; Dap = NC[C@H](N)C(=O)O

How the values were obtained:
[1] = tested on: 70S ribosome (30S, 50S and 70S particles); format: binding, Mycobacterium smegmatis
[2] = tested on: S. coelicolor M145 and derived mutants; format: cell-based, Streptomyces coelicolor
M. smegmatis [3] = test: microbe, parasite or virus in culture; format: cell-based, Mycobacterium smegmatis
S. avermitilis MA4630 = format: cell-based, Streptomyces avermitilis
E. coli strain AS19 = test: Agar plate MIC on hyperpermeable E. coli AS19; settings: Escherichia coli
Description: Escherichia coli strain DH1 was used for cloning and expressing recombinant tlyA, and was grown by standard techniques (Sambrook et al., 1989). The hyperpermeable E. coli strain AS19 (Sekiguchi and Iida, 1967) was additionally used to express tlyA.
Overnight cultures of E. coli DH1 and AS19 strains were diluted 10^5-fold and plated onto agar containing viomycin (US Pharmacopeia), capreomycin, kanamycin or rifampicin (Sigma) with concentrations increasing in two-fold steps. The agar plates were incubated at 37° C.; and after 22 h, MICs were scored as the lowest concentration at which no growth was observed.

E. coli DH1 = test: microbe, parasite or virus in culture; format: cell-based; settings: Escherichia coli, DH1, read-out: Minimal inhibitory concentrations
M. smegmatis [4] = settings: tlyA mutant P2U; cited from earlier work

capreomycin
binding interactions with the ribosome (footprints) [1]: occur only when the ribosomal subunits are associated into 70S couples
MIC value [2]: 1 to 5 µg/mL
capreomycin concentration above which the strain is unable to grow [2]: 5 µg/mL
capreomycin concentration at which the strain grew very well [2]: 100 µg/mL
capreomycin concentration at which the strain still grows [2]: 100 µg/mL
capreomycin sensitivity after complementation [2]: regained capreomycin sensitivity
resistance relative to parent M145 [2]: more than 100 fold
MIC, minimal inhibitory concentration of capreomycin (M. smegmatis [3]): <10 µg/mL
MIC value (S. avermitilis MA4630): 1 to 5 µg/mL

CO[C@H]1/C=C/O[C@@]2(C)Oc3c(C)c(O)c4c(O)c(c(/C=N/N5CCN(C)CC5)c(O)c4c3C2=O)NC(=O)/C(C)=C\C=C\[C@H](C)[C@H](O)[C@@H](C)[C@@H](O)[C@@H](C)[C@H](OC(C)=O)[C@@H]1C [rifampicin]
MIC (E. coli strain AS19): 0.1 µg/mL (≈ 0.122 µM)
MIC (E. coli DH1): 4 µg/mL (≈ 4.86 µM)

NCC[C@H](O)C(=O)N[C@@H]1C[C@H](N)[C@@H](O[C@H]2O[C@H](CN)[C@@H](O)[C@H](O)[C@H]2O)[C@H](O)[C@H]1O[C@H]1O[C@H](CO)[C@@H](O)[C@H](N)[C@H]1O [amikacin]
susceptibility (M. smegmatis [4]): susceptible

NCCC[C@H](N)CC(=O)N[C@H]1CNC(=O)[C@H]([C@H]2C[C@H](O)NC(N)=N2)NC(=O)/C(=C/NC(N)=O)NC(=O)[C@H](CO)NC(=O)[C@H](CO)NC1=O [viomycin] (β3hOrn-[Dap]SS[ΔAla(Z-3-ureido)][X1]; lactam 1-C)
binding interactions with the ribosome (footprints) [1]: occur only when the ribosomal subunits are associated into 70S couples
MIC (M. smegmatis [3]; Mycolicibacterium smegmatis): 20 to 40 µg/mL (≈ 29.2 to 58.3 µM)

NC[C@H]1O[C@H](O[C@H]2[C@H](O)[C@@H](O[C@H]3O[C@H](CO)[C@@H](O)[C@H](N)[C@H]3O)[C@H](N)C[C@@H]2N)[C@H](O)[C@@H](O)[C@@H]1O [kanamycin]
MIC (E. coli DH1): 4 µg/mL (≈ 8.26 µM)
